Where two headings read alike, the source gives them in different places.
Key:
[1] = molecular target: T1, HMG-CoA reductase (Rattus norvegicus, UniProt P51639); experiment: Test A. In Vitro Microsomal Assay of HMG-CoA Reductase Inhibition; assay type: biochemical, rat (male Sprague-Dawley rat liver microsomes)
T1 construct: the microsomes are the source of the HMG-CoA reductase enzyme; from tissue; host or cells: liver microsomes of male Sprague-Dawley rats (150-225 g)
T1 sequence (P51639 1-887): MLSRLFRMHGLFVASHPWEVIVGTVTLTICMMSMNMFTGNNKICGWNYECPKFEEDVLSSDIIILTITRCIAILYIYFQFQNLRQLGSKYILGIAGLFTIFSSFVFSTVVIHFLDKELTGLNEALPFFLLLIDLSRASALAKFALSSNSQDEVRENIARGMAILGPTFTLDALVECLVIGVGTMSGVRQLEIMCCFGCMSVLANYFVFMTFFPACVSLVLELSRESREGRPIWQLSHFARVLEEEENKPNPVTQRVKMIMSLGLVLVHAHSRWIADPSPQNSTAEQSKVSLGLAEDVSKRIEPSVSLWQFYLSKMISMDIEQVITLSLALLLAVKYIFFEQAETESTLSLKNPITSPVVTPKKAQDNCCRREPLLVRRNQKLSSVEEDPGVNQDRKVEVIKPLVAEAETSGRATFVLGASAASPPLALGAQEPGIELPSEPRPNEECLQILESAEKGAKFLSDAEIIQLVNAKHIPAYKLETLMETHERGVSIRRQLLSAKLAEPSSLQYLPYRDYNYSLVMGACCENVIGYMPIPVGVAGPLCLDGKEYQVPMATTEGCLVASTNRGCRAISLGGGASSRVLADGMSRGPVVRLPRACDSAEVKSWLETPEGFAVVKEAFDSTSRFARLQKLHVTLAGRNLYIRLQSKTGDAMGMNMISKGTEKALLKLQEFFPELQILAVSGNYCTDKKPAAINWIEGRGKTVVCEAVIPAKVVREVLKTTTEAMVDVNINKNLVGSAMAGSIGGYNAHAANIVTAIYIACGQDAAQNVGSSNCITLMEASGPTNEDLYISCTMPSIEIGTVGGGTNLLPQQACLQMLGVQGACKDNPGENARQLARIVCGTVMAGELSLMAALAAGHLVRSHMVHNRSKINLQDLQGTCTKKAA
Protocol: Test A. In Vitro Microsomal Assay of HMG-CoA Reductase Inhibition:
200 μl. aliquots (1.08-1.50 mg./ml.) of rat liver microsomal suspensions, freshly prepared from male Sprague-Dawley rats (150-225 g. body weight), in Buffer A with 10 mmol. dithiothreitol are incubated with 10 μl. of a solution of the test substance in dimethylacetamide and assayed for HMG-CoA reductase activity as described in Ackerman et al., J. Lipid Res. 18, 408-413 (1977), the concentration of the test substance in the assay system being 0.0001-2,000 μmolar. In the assay the microsomes are the source of the HMG-CoA reductase enzyme which catalyzes the reduction of HMG-CoA to mevalonate. The assay employs a chloroform extraction to separate the product, [^14 C]mevalonolactone, formed by the HMG-CoA reductase recution of the substrate, [^14 C]HMG-CoA. [^3 H]mevalonolactone is added as an internal reference. Inhibition of HMG-CoA reductase is calculated from the decrease in specific activity ([^14 C/^3 H]mevalonate) of test groups compared to controls.
IC50 is the concentration of the test substance in the assay system calculated or observed to produce a 50% inhibition of HMG-CoA reductase activity.

[2] = test system: 3β-hydroxysterol synthesis (cholesterol biosynthesis); experiment: Test B. In Vivo Cholesterol Biosynthesis Inhibition Test; parameters: species or system rat (male Wistar Royal Hart); conditions: Rattus norvegicus, read-out: ED50 (50% inhibition of 3β-hydroxysterol synthesis)
Protocol: In vivo studies utilize male Wistar Royal Hart rats weighing 150±20 g. which have been kept for 7-10 days on an altered light cycle (6:30 A.M.-6:30 P.M. dark) housed two per cage and fed powdered Purina Rat Chow and water ad libitum. Three hours before the diurnal maximum of cholesterol synthesis at mid-dark, the rats are orally administered the test substance (e.g., 0.01-200 mg./kg. body weight) dissolved or as a suspension in 0.5% carboxymethylcellulose in a volume of 1 ml./100 g. body weight. Controls receive vehicle alone. One hour after receiving the test substance (or the vehicle alone), the rats are injected intraperitoneally with about 25 μCi/100 g. body weight of sodium [1-^14 C]acetate 1-3 mCi/mmol. Two hours after mid-dark, blood samples are obtained under sodium hexobarbitol anesthesia, and the serum is separated by centrifugation.
Serum samples are saponified and neutralized, and the 3β-hydroxysterols are precipitated with digitonin basically as described in Sperry et al., J. Biol. Chem. 187, 97 (1950). The [^14 C]digitonides are then counted by liquid scintillation spectrometry. After correcting for efficiencies, the results are calculted in nCi (nanocuries)of 3β-hydroxysterol formed per 100 ml. of serum. Inhibition of 3β-hydroxysterol synthesis is calculated from the reduction in the nCi of 3β-hydroxysterols formed from test groups compared to controls.
ED50 is the dose of the test substance calculated or observed to produce a 50% inhibition of 3β-hydroxysterol synthesis.

[3] = rat liver microsomal suspensions, test substance 0.0001-2,000 μmolar, calculated or observed, read-out: IC50 (50% inhibition of HMG-CoA reductase activity)
[4] = male rats, oral, in 0.5% carboxymethylcellulose, [1-14C]acetate i.p. 1 h later, serum, calculated or observed

| Compound | IC50 [1, 3] | ED50 [2, 4] | IC50 [1] | ED50 ([2]; po, 1 h) |
| --- | --- | --- | --- | --- |
| CC(C)c1c(/C=C/[C@@H]2C[C@@H](O)CC(=O)O2)c(-c2ccc(F)cc2)nn1-c1ccccc1 (relative stereo) [Example 11, (E)-Trans-6-(2'-[3"-(4'"-fluorophenyl)-5"-(1'"-methylethyl)-1"-phenyl-1H-pyrazol-4"-yl]ethenyl)-4-hydroxy-3,4,5,6-tetrahydro-2H-pyran-2-one] | 260 nM |  |  |  |
| CC[C@H](C)C(=O)O[C@H]1CCC=C2C=C[C@H](C)[C@H](CC[C@@H]3C[C@@H](O)CC(=O)O3)[C@H]21 [Compactin, reference compound] |  | 3.5 mg/kg |  |  |
| CC(C)n1nc(-c2ccccc2)c(-c2ccc(F)cc2)c1/C=C\[C@@H]1C[C@@H](O)CC(=O)O1 [Example 2, (Z)-Trans-6S-(2'-[4"-(4'"-fluorophenyl)-1"-(1'"-methylethyl)-3"-phenyl-1H-pyrazol-5"-yl]ethenyl)-4R-hydroxy-3,4,5,6-tetrahydro-2H-pyran-2-one] | 103000 nM |  |  |  |
| CC(C)c1nn(-c2ccccc2)c(-c2ccc(F)cc2)c1/C=C/[C@@H](O)C[C@@H](O)CC(=O)O (relative stereo) [Example 14, Sodium erythro-(±)-(E)-3,5-dihydroxy-7-[5'-(4"-fluorophenyl)-3'-(1"-methylethyl)-1'-phenyl-1H-pyrazol-4'-yl]hept-6-enoate] | 20 nM | 0.013 mg/kg |  |  |
| CC[C@H](C)C(=O)O[C@H]1C[C@@H](C)C=C2C=C[C@H](C)[C@H](CC[C@@H]3C[C@@H](O)CC(=O)O3)[C@H]21 [Mevinolin, reference compound] |  |  | 140 nM | 0.41 mg/kg |
| CC(C)n1nc(-c2ccccc2)c(-c2ccc(F)cc2)c1/C=C/[C@@H]1C[C@@H](O)CC(=O)O1 [Example 1, (E)-Trans-6S-(2'-[4"-(4'"-fluorophenyl)-1"-(1'"-methylethyl)-3"-phenyl-1H-pyrazol-5"-yl]ethenyl)-4R-hydroxy-3,4,5,6-tetrahydro-2H-pyran-2-one] | 80 nM |  |  |  |
| CC(C)n1nc(-c2ccccc2)c(-c2ccc(F)cc2)c1/C=C/[C@@H](O)C[C@@H](O)CC(=O)O (relative stereo) [Example 7, Sodium erythro-(E)-3,5-dihydroxy-7-[4'-(4"-fluorophenyl)-1'-(1"-methylethyl)-3'-phenyl-1H-pyrazol-5'-yl]hept-6-enoate] | 40 nM | 0.06 mg/kg |  |  |
| CC(C)n1nc(-c2ccccc2)c(-c2ccc(F)cc2)c1/C=C/[C@@H](O)C[C@@H](O)CC(=O)O [Example 3, Sodium erythro-(E)-3R,5S-dihydroxy-7-[4'-(4"-fluorophenyl)-1'-(1"-methylethyl)-3'-phenyl-1H-pyrazol-5'-yl]hept-6-enoate] | 60 nM | 0.05 mg/kg |  |  |

From US4613610A, “Cholesterol biosynthesis inhibiting pyrazole analogs of mevalonolactone and its derivatives” (Sandoz Pharmaceuticals Corp., priority 1985, dated 1986)
